Test results: patent US20200131196A1 (Mount Tam Therapeutics, Inc., priority 2017, published 2020)

Columns and labels:
SK-MEL-28 = test: OncoPanel cell proliferation assay, SK-MEL-28; format: cell-based, human; settings: Homo sapiens, read-out: Cell Count IC50
Protocol: (§1) Cells were grown in RPMI 1640, 10% FBS, 2 mM L-alanyl-L-glutamine, 1 mM Na pyruvate, or a special medium. Cells were seeded into 384-well plates and incubated in a humidified atmosphere of 5% CO2 at 37° C. Compounds were added the day following cell seeding. At the same time, a time zero untreated cell plate was generated. After a 3-day incubation period, cells were fixed and stained to allow fluorescence imaging of nuclei. Compounds (1 mM stock solutions) were serially diluted in half-log steps from the highest test concentration ([…]), and assayed over 10 concentrations with a maximum assay concentration of 0.1% DMSO. Automated fluorescence microscopy was carried out using a Molecular Devices ImageXpress Micro XL high-content imager, and images were collected with a 4× objective. 16-bit TIFF images were acquired and analyzed with MetaXpress 5.1.0.41 software.
(§2) Cell proliferation was measured by the fluorescence intensity of an incorporated nuclear dye. The output is referred to as the relative cell count, where the measured nuclear intensity is transformed to percent of control (POC) using the following formula: […]
(§3) Cellular response parameters were calculated using nonlinear regression to a sigmoidal single-site dose response model:
(§4) EC50 is the test compound concentration at the curve inflection point or half the effective response (parameter C of the fitted curve solution). GI50 is the concentration needed to reduce the observed growth by half (midway between the curve maximum and the time zero value). “Cell Count Activity Area” is an estimate of the integrated area above the curve (Barretina, et al. The Cancer Cell Line Encyclopedia enables predictive modelling of anticancer drug sensitivity. Nature 483: 603-607). […] In rare instances, values <0 or >10 may be observed. […] Curve-fitting, calculations, and report generation was performed using a custom data reduction engine and MathIQ based software (AIM).

PC-3 = test: OncoPanel cell proliferation assay, PC-3
Protocol: (§5) Cells were seeded into 384-well plates and incubated in a humidified atmosphere of 5% CO2 at 37° C. Compounds were added the day following cell seeding. At the same time, a time zero untreated cell plate was generated. After a 3-day incubation period, cells were fixed and stained to allow fluorescence imaging of nuclei. Compounds (1 mM stock solutions) were serially diluted in half-log steps from the highest test concentration (1 micromol), and assayed over 10 concentrations with a maximum assay concentration of 0.1% DMSO. Automated fluorescence microscopy was carried out using a Molecular Devices ImageXpress Micro XL high-content imager, and images were collected with a 4× objective. 16-bit TIFF images were acquired and analyzed with MetaXpress 5.1.0.41 software.
(§6) GI50 is the concentration needed to reduce the observed growth by half (midway between the curve maximum and the time zero value). […] In rare instances, values <0 or >10 may be observed. […] Curve-fitting, calculations, and report generation was performed using a custom data reduction engine and MathIQ based software (AIM).

CHP-212 = test: OncoPanel cell proliferation assay, CHP-212
Protocol: as §5, §6

A101D = test: OncoPanel cell proliferation assay, A101D; format: cell-based, human
Protocol: as §1, §2, §3, §4

T24 = test: OncoPanel cell proliferation assay, T24; format: cell-based, human
Protocol: as §1, §2, §3, §4

SK-NEP-1 = test: OncoPanel cell proliferation assay, SK-NEP-1
Protocol: as §5, §6

MES-SA = test: OncoPanel cell proliferation assay, MES-SA; format: cell-based, human
Protocol: as §1, §2, §3, §4

[1] = Homo sapiens, read-out: Cell Count EC50
[2] = Homo sapiens, read-out: Cell Count GI50
[3] = Homo sapiens, read-out: Cell Count IC50

CO[C@H]1C[C@@H]2CC[C@@H](C)[C@@](O)(O2)C(=O)C(=O)N2CCCC[C@H]2C(=O)O[C@H]([C@H](C)C[C@H]2C[C@H]3C[C@@H]2C[C@@H]3O)CC(=O)[C@H](C)/C=C(\C)[C@@H](O)[C@@H](OC)C(=O)[C@H](C)C[C@H](C)/C=C/C=C/C=C/1C [Formula II, C37-[(1R,2S,4R,5S)-5-hyhroxybicyclo[2.2.1]heptane] rapamycin]
IC50 (SK-MEL-28): > 1000 nM | EC50 (PC-3; Homo sapiens, PC-3, read-out: Cell Count EC50): 0.637 nM | GI50 (PC-3; Homo sapiens, PC-3, read-out: Cell Count GI50): 3.99 nM | IC50 (PC-3; Homo sapiens, PC-3, read-out: Cell Count IC50): 18.4 nM | Cell Count Activity Area (PC-3; PC-3): 3.80 | Relative cell count (%) Mean (PC-3; PC-3, 1.00E+00 microM): 42.2% | Relative cell count (%) Mean (PC-3; PC-3, 1.00E-01 microM): 50.3% | Relative cell count (%) Mean (PC-3; PC-3, 1.00E-02 microM): 59.2% | Relative cell count (%) Mean (PC-3; PC-3, 1.00E-03 microM): 70.9% | Relative cell count (%) Mean (PC-3; PC-3, 1.01E-04 microM): 98.3% | Relative cell count (%) Mean (PC-3; PC-3, 3.16E-01 microM): 47.6% | Relative cell count (%) Mean (PC-3; PC-3, 3.17E-02 microM): 50.8% | Relative cell count (%) Mean (PC-3; PC-3, 3.17E-03 microM): 61.5% | Relative cell count (%) Mean (PC-3; PC-3, 3.18E-04 microM): 73.9% | Relative cell count (%) Mean (PC-3; PC-3, 3.18E-05 microM): 96.9% | Cell Count Activity Area (CHP-212; CHP-212): 3.87 | Relative cell count (%) Mean (CHP-212; CHP-212, 1.00E+00 microM): 43.7% | Relative cell count (%) Mean (CHP-212; CHP-212, 1.00E-01 microM): 47.0% | Relative cell count (%) Mean (CHP-212; CHP-212, 1.00E-02 microM): 57.6% | Relative cell count (%) Mean (CHP-212; CHP-212, 1.00E-03 microM): 59.5% | Relative cell count (%) Mean (CHP-212; CHP-212, 1.01E-04 microM): 82.6% | Relative cell count (%) Mean (CHP-212; CHP-212, 3.16E-01 microM): 46.9% | Relative cell count (%) Mean (CHP-212; CHP-212, 3.17E-02 microM): 54.5% | Relative cell count (%) Mean (CHP-212; CHP-212, 3.17E-03 microM): 59.2% | Relative cell count (%) Mean (CHP-212; CHP-212, 3.18E-04 microM): 68.8% | Relative cell count (%) Mean (CHP-212; CHP-212, 3.18E-05 microM): 93.4% | EC50 (CHP-212; Homo sapiens, CHP-212, read-out: Cell Count EC50): 0.267 nM | GI50 (CHP-212; Homo sapiens, CHP-212, read-out: Cell Count GI50): 0.349 nM | IC50 (CHP-212; Homo sapiens, CHP-212, read-out: Cell Count IC50): 34 nM | Cell Count Activity Area (A101D): 3.79 | Relative cell count (%) Mean (A101D; 1.00E+00 microM): 52.5% | Relative cell count (%) Mean (A101D; 1.00E-01 microM): 54.3% | Relative cell count (%) Mean (A101D; 1.00E-02 microM): 62.0% | Relative cell count (%) Mean (A101D; 1.00E-03 microM): 75.1% | Relative cell count (%) Mean (A101D; 1.01E-04 microM): 96.5% | Relative cell count (%) Mean (A101D; 3.16E-01 microM): 59.6% | Relative cell count (%) Mean (A101D; 3.17E-02 microM): 56.2% | Relative cell count (%) Mean (A101D; 3.17E-03 microM): 71.5% | Relative cell count (%) Mean (A101D; 3.18E-04 microM): 82.7% | Relative cell count (%) Mean (A101D; 3.18E-05 microM): 100.8% | EC50 (A101D; [1]): 0.366 nM | GI50 (A101D; [2]): 1.36 nM | IC50 (A101D; [3]): 56.2 nM | Cell Count Activity Area (T24): 4.16 | Relative cell count (%) Mean (T24; 1.00E+00 microM): 36.6% | Relative cell count (%) Mean (T24; 1.00E-01 microM): 42.2% | Relative cell count (%) Mean (T24; 1.00E-02 microM): 52.8% | Relative cell count (%) Mean (T24; 1.00E-03 microM): 61.8% | Relative cell count (%) Mean (T24; 1.01E-04 microM): 85.7% | Relative cell count (%) Mean (T24; 3.16E-01 microM): 40.8% | Relative cell count (%) Mean (T24; 3.17E-02 microM): 48.5% | Relative cell count (%) Mean (T24; 3.17E-03 microM): 52.6% | Relative cell count (%) Mean (T24; 3.18E-04 microM): 69.8% | Relative cell count (%) Mean (T24; 3.18E-05 microM): 93.2% | EC50 (T24; Homo sapiens, T-24, read-out: Cell Count EC50): 0.471 nM | GI50 (T24; Homo sapiens, T-24, read-out: Cell Count GI50): 3.09 nM | IC50 (T24; Homo sapiens, T-24, read-out: Cell Count IC50): 6.8 nM | EC50 (SK-NEP-1; Homo sapiens, SK-NEP-1, read-out: Cell Count EC50): 2.48 nM | GI50 (SK-NEP-1; Homo sapiens, SK-NEP-1, read-out: Cell Count GI50): 3.27 nM | IC50 (SK-NEP-1; Homo sapiens, SK-NEP-1, read-out: Cell Count IC50): 18.1 nM | Cell Count Activity Area (SK-NEP-1; SK-NEP-1): 3.36 | Relative cell count (%) Mean (SK-NEP-1; SK-NEP-1, 1.00E+00 microM): 41.8% | Relative cell count (%) Mean (SK-NEP-1; SK-NEP-1, 1.00E-01 microM): 45.4% | Relative cell count (%) Mean (SK-NEP-1; SK-NEP-1, 1.00E-02 microM): 59.8% | Relative cell count (%) Mean (SK-NEP-1; SK-NEP-1, 1.00E-03 microM): 86.5% | Relative cell count (%) Mean (SK-NEP-1; SK-NEP-1, 1.01E-04 microM): 106.4% | Relative cell count (%) Mean (SK-NEP-1; SK-NEP-1, 3.16E-01 microM): 44.3% | Relative cell count (%) Mean (SK-NEP-1; SK-NEP-1, 3.17E-02 microM): 49.3% | Relative cell count (%) Mean (SK-NEP-1; SK-NEP-1, 3.17E-03 microM): 67.1% | Relative cell count (%) Mean (SK-NEP-1; SK-NEP-1, 3.18E-04 microM): 94.6% | Relative cell count (%) Mean (SK-NEP-1; SK-NEP-1, 3.18E-05 microM): 99.0% | Cell Count Activity Area (MES-SA): 4.81 | Relative cell count (%) Mean (MES-SA; 1.00E+00 microM): 26.6% | Relative cell count (%) Mean (MES-SA; 1.00E-01 microM): 31.4% | Relative cell count (%) Mean (MES-SA; 1.00E-02 microM): 43.5% | Relative cell count (%) Mean (MES-SA; 1.00E-03 microM): 71.1% | Relative cell count (%) Mean (MES-SA; 1.01E-04 microM): 107.7% | Relative cell count (%) Mean (MES-SA; 3.16E-01 microM): 26.5% | Relative cell count (%) Mean (MES-SA; 3.17E-02 microM): 35.6% | Relative cell count (%) Mean (MES-SA; 3.17E-03 microM): 53.2% | Relative cell count (%) Mean (MES-SA; 3.18E-04 microM): 90.9% | Relative cell count (%) Mean (MES-SA; 3.18E-05 microM): 105.0% | EC50 (MES-SA; [1]): 1.17 nM | GI50 (MES-SA; [2]): 1.96 nM | IC50 (MES-SA; [3]): 2.74 nM
